According to PubChem BioAssay (NCI):
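1) Cells in 96-well plates. 2) Compound, 48 h, 5 concentrations. 3) Linear interpolation between surrounding doses. 4) Unreached endpoint = highest concentration. Here, GI50 denotes the concentration required for 50% inhibition of growth. TGI denotes the concentration required for complete inhibition of growth.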

Assays:
Experiment in all cases: NCI tumour cell line growth inhibition, 48 h
[1] = system: OVCAR-4 ovarian
[2] = system: DU-145 prostate
[3] = system: EKVX NSCLC
[4] = system: MCF7 breast
[5] = system: SN12C renal
[6] = system: NCI-H23 lung
[7] = system: UACC-257 melanoma
[8] = system: NCI/ADR-RES ovarian
[9] = system: RPMI-8226 leukemia
[10] = system: SNB-75 CNS
[11] = system: SNB-19 CNS
[12] = system: BT-549 breast
[13] = system: UO-31 renal
[14] = system: MDA-MB-231 breast
[15] = system: HOP-62 NSCLC
[16] = system: MDA-MB-435
[17] = system: ACHN renal
[18] = system: COLO 205 colon
[19] = system: NCI-H522 lung
[20] = system: MALME-3M melanoma
[21] = system: SF-268 CNS
[22] = system: HCT-15 colon
[23] = system: HS 578T breast
[24] = system: SK-OV-3 ovarian
[25] = system: KM12 colon
[26] = system: M14 melanoma
[27] = system: MOLT-4 leukemia
[28] = system: SK-MEL-5 melanoma
[29] = system: PC-3 prostate
[30] = system: K-562 leukemia
[31] = system: LOX IMVI melanoma
[32] = system: OVCAR-8 ovarian
[33] = system: HT29 colon
[34] = system: CCRF-CEM leukemia
[35] = system: U251 CNS
[36] = system: 786-0 renal
[37] = system: RXF 393 renal
[38] = system: OVCAR-3 ovarian
[39] = system: OVCAR-5 ovarian
[40] = system: HCT-116 colon
[41] = system: NCI-H226 lung
[42] = system: TK-10 renal
[43] = system: HL-60(TB) leukemia
[44] = system: SK-MEL-28 melanoma
[45] = system: A549 NSCLC
[46] = system: SR leukemia
[47] = system: IGROV1 ovarian
[48] = system: CAKI-1 renal
[49] = system: SF-295 CNS
[50] = system: HOP-92 NSCLC
[51] = system: NCI-H460 lung
[52] = system: HCC-2998 colon
[53] = system: T-47D breast
[54] = system: SF-539 CNS
[55] = system: UACC-62 melanoma
[56] = system: SK-MEL-2 melanoma
[57] = system: SW-620 colon
[58] = system: A498 renal

With `CN1CCN(Cc2ccc(NC(=O)c3nc4ccc5[nH]ncc5c4c4c3CCCC4)cc2C(F)(F)F)CC1` the GI50 [1] was 861 nM, the TGI [1] was 1670 nM and the GI50 [2] was 902 nM. For the same compound, the TGI [2] was 1630 nM, the GI50 [3] was 802 nM and the TGI [3] was 1530 nM. It also gave a GI50 [4] of 848 nM, a TGI [4] of 1690 nM and a GI50 [5] of 877 nM. It also gave a TGI [5] of 1650 nM, a GI50 [6] of 901 nM and a TGI [6] of 1740 nM. For the same compound, the GI50 [7] was 920 nM, the TGI [7] was 1840 nM and the GI50 [8] was 847 nM. It also gave a TGI [8] of 1580 nM, a GI50 [9] of 1110 nM and a TGI [9] of 2690 nM. The GI50 [10] was 770 nM, the TGI [10] was 1490 nM and the GI50 [11] was 868 nM. It also gave a TGI [11] of 1620 nM, a GI50 [12] of 2130 nM and a TGI [12] of 4240 nM. For the same compound, the GI50 [13] was 785 nM, the TGI [13] was 1480 nM and the GI50 [14] was 880 nM. For the same compound, the TGI [14] was 1650 nM, the GI50 [15] was 967 nM and the TGI [15] was 1920 nM. The GI50 [16] was 841 nM, the TGI [16] was 1560 nM and the GI50 [17] was 862 nM. The TGI [17] was 1550 nM, the GI50 [18] was 880 nM and the TGI [18] was 1730 nM. The GI50 [19] was 922 nM, the TGI [19] was 1860 nM and the GI50 [20] was 764 nM. It also gave a TGI [20] of 1530 nM, a GI50 [21] of 865 nM and a TGI [21] of 1700 nM. The GI50 [22] was 792 nM, the TGI [22] was 1520 nM and the GI50 [23] was 922 nM. For the same compound, the TGI [23] was 1970 nM, the GI50 [24] was 7080 nM and the TGI [24] was 14000 nM. For the same compound, the GI50 [25] was 860 nM, the TGI [25] was 1610 nM and the GI50 [26] was 902 nM. The TGI [26] was 1770 nM, the GI50 [27] was 995 nM and the TGI [27] was 2390 nM. For the same compound, the GI50 [28] was 852 nM, the TGI [28] was 1540 nM and the GI50 [29] was 866 nM. For the same compound, the TGI [29] was 1660 nM, the GI50 [30] was 701 nM and the TGI [30] was 1960 nM. The GI50 [31] was 846 nM, the TGI [31] was 1550 nM and the GI50 [32] was 998 nM. For the same compound, the TGI [32] was 2080 nM, the GI50 [33] was 894 nM and the TGI [33] was 1810 nM. The GI50 [34] was 1120 nM, the TGI [34] was 2990 nM and the GI50 [35] was 909 nM. The TGI [35] was 1780 nM, the GI50 [36] was 895 nM and the TGI [36] was 1730 nM. The GI50 [37] was 806 nM, the TGI [37] was 1530 nM and the GI50 [38] was 868 nM. It also gave a TGI [38] of 1600 nM, a GI50 [39] of 843 nM and a TGI [39] of 1580 nM. The GI50 [40] was 855 nM, the TGI [40] was 1710 nM and the GI50 [41] was 862 nM. The TGI [41] was 1770 nM, the GI50 [42] was 846 nM and the TGI [42] was 1620 nM. For the same compound, the GI50 [43] was 943 nM, the TGI [43] was 2020 nM and the GI50 [44] was 862 nM. For the same compound, the TGI [44] was 1580 nM, the GI50 [45] was 890 nM and the TGI [45] was 1790 nM. It also gave a GI50 [46] of 469 nM, a TGI [46] of 3480 nM and a GI50 [47] of 883 nM. For the same compound, the TGI [47] was 1670 nM, the GI50 [48] was 816 nM and the TGI [48] was 1530 nM. It also gave a GI50 [49] of 879 nM, a TGI [49] of 1650 nM and a GI50 [50] of 653 nM. The TGI [50] was 1350 nM, the GI50 [51] was 906 nM and the TGI [51] was 1740 nM. It also gave a GI50 [52] of 867 nM, a TGI [52] of 1630 nM and a GI50 [53] of 926 nM. For the same compound, the TGI [53] was 2030 nM, the GI50 [54] was 831 nM and the TGI [54] was 1540 nM. For the same compound, the GI50 [55] was 905 nM, the TGI [55] was 1740 nM and the GI50 [56] was 1030 nM. It also gave a TGI [56] of 2200 nM, a GI50 [57] of 892 nM and a TGI [57] of 1740 nM. The GI50 [58] was 977 nM and the TGI [58] was 2320 nM.
